Laboratory results from patent EP0327492A1, “Herbicidally and plantgrowth regulatory active quinoline and pyrindine compounds” (CIBA-GEIGY AG, priority 1988, dated 1989).

What was measured:
Format in all cases: in vivo
Untersaaten in Mais = assay: Pre-post selectivity: growth inhibition of undersown grasses (post-emergent) versus maize (pre-emergent)
From the text: Verbindungen der Formel I zeigen in vorteilhafter Weise eine "pre-post-Selektivität" bei verscheidenen Gräsern in Maiskulturen.
Die wuchshemmende Wirkung in Gräsern ist in postemergenter Applikation stark ausgeprägt, während bei gleichzeitiger Preemergenter Applikation Maispflanzen in ihrem Wuchs nur geringfügig gehemmt werden. Derartige "pre-post-Selektivitäten" erlauben somit die Aussaat von Mais in Gräsern. Dabei soll der Zeitpunkt für die Applikation der Aktivsubstanz der Formel so gewählt werden, dass die Aktivsubstanz postemergent für die Gräser ober preemergent für den Mais angewendet wird. In den ersten Wochen ist der Zuwachs der Gräser so stark gehemmt, dass die Maispflanze sich ungehindert entfalten kann.
Eine Mischung von Gräsern (z.B. Poa, Festuca, Lolium, Bromus, Cynosurus) werden in 15 cm - Kunststofftöpfen mit steriler Landerde angesät und im Gewächshaus bei einer Tagestemperatur von 21°C und einer Nachttemperatur von 17°C angezogen. Die Beleuchtungsdauer beträgt 13,5 Stunden/Tag bei einer Lichtintensität von mind. 7000 Lux. Nach dem Ablauf werden die Pflanzen wöchentlich auf ca. 6 cm Höhe zurückgeschnitten. Ca. 42 Tage nach der Saat und 1 Tag nach dem letzten Schnitt erfolgt die Applikation mit 60-500 g Wirkstoff/ha als wässrige Spritzbrühe. Die Wasseraufwandmenge ist ca. 500 I/ha.
20 Tage nach der Behandlung wird der Versuch ausgewertet. Hierbei wird die Höhe des Neuzuwachses gemessen und in % Hemmung zum Durchschnitt der unbehandelten Kontrollen dargestellt. Die nekrotischen Schäden sind in % zur gesamten Blattfläche aufgeführt.
Mais der Sorte Blizzard G188 werden in 15 cm - Kunststofftöpfen mit steriler gesiebter Landerde angesät und im Gewächshaus bei einer Tagestemperatur von 22°C und einer Nachttemperatur von 19°C aufgestellt. Die Beleuchtungsdauer beträgt mindestens 13,5 Stunden/Tag bei einer Lichtintensität von mindestens 7000 Lux. 1 Tag nach der Saat erfolgt die Applikation mit 60-500 g Wirkstoff/ha, in der Regel 25 %ig formuliert und in wässriger Spritzbrühe. Die Wasseraufwandmenge ist ca. 200 I/ha.
16 Tage nach der Behandlung wird der Versuch ausgewertet. […]

Abutilon = assay: Post-emergent herbicidal action, contact herbicide (B.3); details: 500 bis 2000 [g/ha], 15 days after treatment
Protocol: (§1) Im Gewächshaus wird unmittelbar nach der Einsaat der Versuchspflanzen in Saatschalen die Erdoberfläche mit einer wässrigen Dispersion der Wirkstoffe, erhalten aus einem 25 %igen Emulsionskonzentrat behandelt. Es werden Konzentrationen von 2000-500 g Wirksubstanz/Hektar angewendet. Die Saatschalen werden im Gewächshaus bei 22-25° C und 50-70 % relativer Luftfeuchtigkeit gehalten und der Versuch nach 3 Wochen ausgewertet und die Resultate nach folgender Notenskala ausgewertet. • 1 Pflanze hat nicht gekeimt oder ist eingegangen • 2-3 sehr starke Schäden • 4 starke Schäden • 5 mittlere Schäden, die Pflanzen sind verkümmert • 6 Schäden, die Pflanze kann regenerieren • 7-8 leichte Schäden • 9 normales Wachstum, wie das unbehandelter Pflanzen
(§2) Boniturnoten von 1 bis 4 (insbesondere von 1 bis 3) weisen auf eine gute bis sehr gute Herbizidwirkung hin. Boniturnoten von 6 bis 9 (insbesondere 7 bis 9) weisen auf eine gute Toleranz (insbesondere bei Kulturpflanzen) hin.
(§3) Eine Anzahl Unkräuter, sowohl monokotyle wie dikotyle, werden nach dem Auflaufen (im 4- bis 6-Blattstadium) mit einer wässrigen Wirkstoffdispersion in einer Dosierung von 2000-500 g Wirksubstanz pro Hektar auf die Pflanzen gespritzt und diese bei 24°-26°C und 45-60 % relativer Luftfeuchtigkeit gehalten. 15 Tage nach der Behandlung wird der Versuch nach dem in Beispiel B.2. gegebenen Massstab bewertet.

Alopecurus myos. = assay: as above; details: 500 bis 2000 [g/ha], 15 days after treatment
Protocol: as §1, §2, §3

Amaranthus ret. = assay: as above; details: 500 bis 2000 [g/ha], 15 days after treatment
Protocol: as §1, §2, §3

Avena fatua = assay: as above; details: 500 bis 2000 [g/ha], 15 days after treatment
Protocol: as §1, §2, §3

Bromus tectorum = assay: as above; details: 500 bis 2000 [g/ha], 15 days after treatment
Protocol: as §1, §2, §3

Chenopodium Sp. = assay: as above; details: 500 bis 2000 [g/ha], 15 days after treatment
Protocol: as §1, §2, §3

Chrysanthe. leuc. = assay: as above; details: 500 bis 2000 [g/ha], 15 days after treatment
Protocol: as §1, §2, §3

Digitaria sang. = assay: as above; details: 500 bis 2000 [g/ha], 15 days after treatment
Protocol: as §1, §2, §3

Echinochloa crus galli = assay: as above; details: 500 bis 2000 [g/ha], 15 days after treatment
Protocol: as §1, §2, §3

Galium aparine = assay: as above; details: 500 bis 2000 [g/ha], 15 days after treatment
Protocol: as §1, §2, §3

Lolium perenne = assay: as above; details: 500 bis 2000 [g/ha], 15 days after treatment
Protocol: as §1, §2, §3

Sinapis = assay: as above; details: 500 bis 2000 [g/ha], 15 days after treatment
Protocol: as §1, §2, §3

Solanum nigrum = assay: as above; details: 500 bis 2000 [g/ha], 15 days after treatment
Protocol: as §1, §2, §3

Sorghum halep. = assay: as above; details: 500 bis 2000 [g/ha], 15 days after treatment
Protocol: as §1, §2, §3

Stellaria = assay: as above; details: 500 bis 2000 [g/ha], 15 days after treatment
Protocol: as §1, §2, §3

Veronica Sp. = assay: as above; details: 500 bis 2000 [g/ha], 15 days after treatment
Protocol: as §1, §2, §3

Xanthium Sp. = assay: as above; details: 500 bis 2000 [g/ha], 15 days after treatment
Protocol: as §1, §2, §3

Baumwolle = assay: Post-emergent herbicidal action (B.3), crop tolerance; details: 500 bis 2000 [g/ha], 15 days after treatment
Protocol: as §1, §2, §3

Soja = assay: as above; details: 500 bis 2000 [g/ha], 15 days after treatment
Protocol: as §1, §2, §3

| SMILES | "pre-post-Selektivität" bei Untersaaten in Mais (Untersaaten in Mais) | Herbizidwirkung (Abutilon) | Herbizidwirkung (Alopecurus myos.) | Herbizidwirkung (Amaranthus ret.) | Herbizidwirkung (Avena fatua) | Herbizidwirkung (Bromus tectorum) | Herbizidwirkung (Chenopodium Sp.) | Herbizidwirkung (Chrysanthe. leuc.) | Herbizidwirkung (Digitaria sang.) | Herbizidwirkung (Echinochloa crus galli) | Herbizidwirkung (Galium aparine) | Herbizidwirkung (Lolium perenne) | Herbizidwirkung (Sinapis) | Herbizidwirkung (Solanum nigrum) | Herbizidwirkung (Sorghum halep.) | Herbizidwirkung (Stellaria) | Herbizidwirkung (Veronica Sp.) | Herbizidwirkung (Xanthium Sp.) | Toleranz (im Wachstum beeinflusst) (Baumwolle) | Toleranz (im Wachstum beeinflusst) (Soja) |
| --- | --- | --- | --- | --- | --- | --- | --- | --- | --- | --- | --- | --- | --- | --- | --- | --- | --- | --- | --- | --- |
| CC(C)C1(C)NC(c2nc3c(cc2C(=O)O)C(C)(C)CCC3)=NC1=O (stereo not drawn) [Verbindung 2.12, 2-(5-Isopropyl-5-methyl-1 H-imidazol-4-on-2-yl)-5,5-dimethyl-5,6,7,8-tetrahydrochinolin-3-carbonsäure] | ausgeprägter "pre-post-Selektivität" |  |  |  |  |  |  |  |  |  |  |  |  |  |  |  |  |  |  |  |
| CC1CCc2cc3c(nc2C1)C1=NC(C)(C(C)C)C(=O)N1C3=O (stereo not drawn) [Verbindung 3.03, 2,9-Dimethyl-2-isopropyl-7,8,9,10-tetrahydro-3H,5H-imidazo[1',2':1,2]pyrrolo[3,4-b]chinolin-3,5-dion] | ausgeprägter "pre-post-Selektivität" |  |  |  |  |  |  |  |  |  |  |  |  |  |  |  |  |  |  |  |
| CC1CCc2nc(C3=NC(=O)C(C)(C(C)C)N3)c(C(=O)O)cc21 (stereo not drawn) [Verbindung 2.06, 7H-5,6-Dihydro-2-(5-isopropyl-5-methyl-1 H-imidazol-4-on-2-yl)-5-methyl-1-pyrindin-3-carbonsäure] |  | gute bis sehr gute Herbizidwirkung (Boniturnoten von 1 bis 4 (insbesondere von 1 bis 3) weisen auf eine gute bis sehr gute Herbizidwirkung hin) | gute bis sehr gute Herbizidwirkung (Boniturnoten von 1 bis 4 (insbesondere von 1 bis 3) weisen auf eine gute bis sehr gute Herbizidwirkung hin) | gute bis sehr gute Herbizidwirkung (Boniturnoten von 1 bis 4 (insbesondere von 1 bis 3) weisen auf eine gute bis sehr gute Herbizidwirkung hin) | gute bis sehr gute Herbizidwirkung (Boniturnoten von 1 bis 4 (insbesondere von 1 bis 3) weisen auf eine gute bis sehr gute Herbizidwirkung hin) | gute bis sehr gute Herbizidwirkung (Boniturnoten von 1 bis 4 (insbesondere von 1 bis 3) weisen auf eine gute bis sehr gute Herbizidwirkung hin) | gute bis sehr gute Herbizidwirkung (Boniturnoten von 1 bis 4 (insbesondere von 1 bis 3) weisen auf eine gute bis sehr gute Herbizidwirkung hin) | gute bis sehr gute Herbizidwirkung (Boniturnoten von 1 bis 4 (insbesondere von 1 bis 3) weisen auf eine gute bis sehr gute Herbizidwirkung hin) | gute bis sehr gute Herbizidwirkung (Boniturnoten von 1 bis 4 (insbesondere von 1 bis 3) weisen auf eine gute bis sehr gute Herbizidwirkung hin) | gute bis sehr gute Herbizidwirkung (Boniturnoten von 1 bis 4 (insbesondere von 1 bis 3) weisen auf eine gute bis sehr gute Herbizidwirkung hin) | gute bis sehr gute Herbizidwirkung (Boniturnoten von 1 bis 4 (insbesondere von 1 bis 3) weisen auf eine gute bis sehr gute Herbizidwirkung hin) | gute bis sehr gute Herbizidwirkung (Boniturnoten von 1 bis 4 (insbesondere von 1 bis 3) weisen auf eine gute bis sehr gute Herbizidwirkung hin) | gute bis sehr gute Herbizidwirkung (Boniturnoten von 1 bis 4 (insbesondere von 1 bis 3) weisen auf eine gute bis sehr gute Herbizidwirkung hin) | gute bis sehr gute Herbizidwirkung (Boniturnoten von 1 bis 4 (insbesondere von 1 bis 3) weisen auf eine gute bis sehr gute Herbizidwirkung hin) | gute bis sehr gute Herbizidwirkung (Boniturnoten von 1 bis 4 (insbesondere von 1 bis 3) weisen auf eine gute bis sehr gute Herbizidwirkung hin) | gute bis sehr gute Herbizidwirkung (Boniturnoten von 1 bis 4 (insbesondere von 1 bis 3) weisen auf eine gute bis sehr gute Herbizidwirkung hin) | gute bis sehr gute Herbizidwirkung (Boniturnoten von 1 bis 4 (insbesondere von 1 bis 3) weisen auf eine gute bis sehr gute Herbizidwirkung hin) | gute bis sehr gute Herbizidwirkung (Boniturnoten von 1 bis 4 (insbesondere von 1 bis 3) weisen auf eine gute bis sehr gute Herbizidwirkung hin) | gute Toleranz (Boniturnoten von 6 bis 9 (insbesondere 7 bis 9) weisen auf eine gute Toleranz (insbesondere bei Kulturpflanzen) hin) | gute Toleranz (Boniturnoten von 6 bis 9 (insbesondere 7 bis 9) weisen auf eine gute Toleranz (insbesondere bei Kulturpflanzen) hin) |
